Results taken from publication PMC9254149 (RSC Advances, 2022).

Key:
Format in all cases: cell-based, human
HepG2 cells = assay: Cell viability by CCK-8 method; conditions: Homo sapiens, HepG2, 24 h, read-out: IC50 (cell viability)
[1] = Cell viability by CCK-8 method; conditions: human, HepG2 cells
IR-HepG2 cells = assay: Glucose consumption in IR-HepG2 cells; conditions: 24 h

SMILES: CC(C)=CCCC(C)(O)C(O)CCC(C)CCO (stereo not drawn) [Compound 3, 2,6,10-trimethyl-6,7,12-trihydroxy-dodec-2-ene]
- IC50 (HepG2 cells): 34 µM
- viability at 24 h, 10 µM [1]: 94.8 ± 1.94%
- viability at 24 h, 20 µM [1]: 83.5 ± 3.68%
- viability at 24 h, 30 µM [1]: 60.3 ± 3.33%
- viability at 24 h, 40 µM [1]: 36.3 ± 1.62%
- viability at 24 h, 50 µM [1]: 33.4 ± 1.9%
- Glucose consumption (IR-HepG2 cells; 2.5 μM): 2.06 ± 1.27 mM
- Glucose consumption (IR-HepG2 cells; 5.0 μM): 2.43 ± 0.67 mM
- Glucose consumption (IR-HepG2 cells; 10.0 μM): 2.66 ± 0.56 mM
- Glucose consumption (IR-HepG2 cells; 12.5 μM): 2.86 ± 0.71 mM
- Glucose consumption (IR-HepG2 cells; 15 μM): 2.44 ± 0.60 mM

SMILES: C[C@@H]1O[C@@H](O[C@H]2[C@H](O[C@H]3CC[C@@]4(C)[C@@H](CC[C@]5(C)[C@@H]4CC=C4[C@@H]6CC(C)(C)CC[C@]6(C(=O)O)CC[C@]45C)[C@]3(C)CO)OC[C@H](O)[C@@H]2O)[C@H](O)[C@H](O)[C@H]1O [Compound 5, α-hederin]
- IC50 (HepG2 cells): > 50 µM
- viability at 24 h, 10 µM [1]: 98.57 ± 0.57%
- viability at 24 h, 20 µM [1]: 93.4 ± 1.23%
- viability at 24 h, 30 µM [1]: 89.4 ± 1.16%
- viability at 24 h, 40 µM [1]: 76.1 ± 1.73%
- viability at 24 h, 50 µM [1]: 73.3 ± 2.58%
- Glucose consumption (IR-HepG2 cells; 2.5 μM): 6.31 ± 0.96 mM
- Glucose consumption (IR-HepG2 cells; 10.0 μM): 7.75 ± 0.84 mM
- Glucose consumption (IR-HepG2 cells; 12.5 μM): 8.97 ± 0.37 mM
- Glucose consumption (IR-HepG2 cells; 15 μM): 9.99 ± 0.95 mM
